Measurements from patent publication US12281114B2, “NK3 modulators and uses thereof” (Kallyope, Inc., priority 2023, dated 2025).

target: T1, human NK3 (Homo sapiens, UniProt P29371); assay: FLIPR calcium assay in antagonist mode (NKB EC70 challenge); format: cell-based; details: stable cell line expressing human recombinant NK3; antagonist mode vs EC70 of NKB agonist
T1 sequence (P29371 1-465): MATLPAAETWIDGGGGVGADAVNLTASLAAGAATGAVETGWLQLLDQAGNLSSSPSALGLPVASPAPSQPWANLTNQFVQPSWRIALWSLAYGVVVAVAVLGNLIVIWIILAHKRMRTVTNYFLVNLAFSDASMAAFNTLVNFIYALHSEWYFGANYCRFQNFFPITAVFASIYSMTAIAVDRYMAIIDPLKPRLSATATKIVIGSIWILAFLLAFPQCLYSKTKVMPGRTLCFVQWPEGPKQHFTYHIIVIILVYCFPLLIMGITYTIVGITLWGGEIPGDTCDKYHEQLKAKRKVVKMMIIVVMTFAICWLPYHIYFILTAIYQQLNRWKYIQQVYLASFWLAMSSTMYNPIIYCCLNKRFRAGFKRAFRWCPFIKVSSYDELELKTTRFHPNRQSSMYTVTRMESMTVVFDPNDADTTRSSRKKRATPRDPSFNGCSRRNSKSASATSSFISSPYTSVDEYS
Protocol: Stable Cell Lines: A human recombinant NK3 Tachykinin Receptor stable cell line was purchased from GenScript (Genscript, Cat. #M00201; GenBank Accession Number NM 001059). The cell line was cultured according to manufacturer instructions, using 100 μg/mL Hygromycin B (Invitrogen, Cat. #D2650) for selective pressure. Cells were then collected using 0.05% Trypsin-EDTA (GIBCO, Cat. #25300) and frozen in a freezing media containing 90% FBS (Gibco, Cat. #10099-141) and 10% DMSO (Sigma, Cat. #D2650) at a density of 30×10^6 cells/mL. This bank of assay-ready frozen cells was later used in FLIPR assays to evaluate the potency and efficacy of NK3 antagonist test compounds.
FLIPR Calcium Assay: The FLIPR assay, used to measure changes in intracellular calcium levels, was performed in a 384-well plate format using the FLIPR Calcium 6 assay kit (Molecular Devices, Cat. #R8190). Assay-ready frozen cells expressing human NK3 (Genscript, Cat. #M00201) were thawed, washed, trypsinized, counted using a ViCell, and plated in cell growth media without Hygromycin at a density of […] (40 μL/well).
Calculation of NKB EC70: An EC70 concentration of NKB needed to be determined for competition against test antagonists prior to the compound screen. NKB agonist (Phoenix Pharmaceuticals, Cat. #046-26) was diluted in DMSO at 1800 nM (6-fold the final concentration) and serially diluted to generate a 13-point dose response curve (3-fold serial dilution) using an ECHO. 20 μL of 1× stimulation buffer was added using the BRAVO. 10 μL of DMSO was added while on the FLIPR (described as the first addition), then the RFU signal was measured for 10 minutes. The NKB titration was added to the plate, then the RFU signal was measured for 10 minutes (described as the second addition) on the FLIPR. The EC70 concentration was determined by using a four-parameter fit on GraphPad Prism prior to performing the compound screen.
FLIPR Screen in Antagonist Mode: Test compounds were prepared at 60 μM (6-fold the final concentration) and spotted in 370 nL using the Janus and ECHO. 20 μL of assay buffer was added using the BRAVO. Calcium-sensitive dye was reconstituted in loading buffer (Molecular Devices, Cat. #R8190). Media was removed from the cell plate using a Bluecat Cell Washer, and 40 μL of dye was added to the cell plate using the Apricot. The plate was incubated for 2 hours at 37° C., 5% CO2, then transferred to the FLIPR instrument. 10 μL of compound was added on the FLIPR (described as the first addition), then the RFU signal was measured for 10 minutes. EC70 of NKB agonist was added to the entire plate (described as the second addition), and the RFU signal was measured for 10 minutes on the FLIPR. RFU (relative fluorescence units) signals for first baseline, first peak, second baseline, and second peak were measured using the FLIPR. RFU signal (second peak minus second baseline) for positive (Max, at 10 μM antagonist) and negative (Min, at 0 μM antagonist) controls were used to normalize data and generate values for % Activity. IC50 and efficacy values were determined using a standard curve fitting equation on Dotmatics.

| SMILES | IC50 |
| --- | --- |
| Cc1nn(C)cc1-c1ccccc1-c1nc2cc(C(=O)N3CC[C@@H](N4CCNCC4)C3)ccn2c1C (single isomer, unassigned) [Compound 480] | 20.7 nM |
| Cc1nn(C)cc1-c1ccccc1-c1nc2cc(C(=O)N3CC[C@H](N4CCNCC4)C3)ccn2c1C (single isomer, unassigned) [Compound 481] | 16.1 nM |
| Cc1c(-c2ccccc2-c2nc3cc(C(=O)N[C@@H]4CO[C@H]5[C@@H]4OC[C@H]5O)ccn3c2Cl)cnn1C [Compound 142] | 6.6 nM |
| Cc1nn(C)cc1-c1ccccc1-c1nc2cc(C(=O)NC3CCNCC3)ccn2c1C [Compound 264] | 10.7 nM |
| Cc1nn(C)cc1-c1ccccc1-c1nc2cc(C(=O)N3CCNCC3)ccn2c1C [Compound 271] | 20.3 nM |
| Cc1c(-c2ccccc2-c2nc3cc(C(=O)N[C@H]4C[C@@](C)(C(=O)O)C4)ccn3c2C)cnn1C [Compound 295] | 131 nM |
| Cc1nn(C)cc1-c1ccccc1-c1nc2cc(C(=O)N[C@H]3C[C@@](C)(C(=O)O)C3)ccn2c1C [Compound 298] | 26.8 nM |
| Cc1c(-c2ccccc2-c2nc3cc(C(=O)N[C@H]4C[C@](C)(C(=O)O)C4)ccn3c2C)cnn1C [Compound 312] | 41.7 nM |
| Cc1nn(C)cc1-c1ccccc1-c1nc2cc(C(=O)N[C@H]3C[C@](C)(C(=O)O)C3)ccn2c1C [Compound 317] | 7.03 nM |
| Cc1nn(C)cc1-c1ccccc1-c1nc2cc(C(=O)O)ccn2c1Cl [Compound 436] | 67.5 nM |
| Cc1nn(C)cc1-c1ccccc1-c1nc2cc(C(=O)N3C[C@H](N)[C@@H](O)C3)ccn2c1Cl [Compound 442] | 15.1 nM |
| Cc1nn(C)cc1-c1ccccc1-c1nc2cc(C(=O)N3CCN(C4CCNC4)CC3)ccn2c1Cl (stereo not shown) [Compound 443] | 11.3 nM |
| CC(=O)NCCNC(=O)c1ccn2c(Cl)c(-c3ccccc3-c3cn(C)nc3C)nc2c1 [Compound 451] | 7.13 nM |

The next compounds have a lower IC50 than those just listed; values first:

| IC50 | SMILES |
| --- | --- |
| 6.01 nM | Cc1nn(C)cc1-c1ccccc1-c1nc2cc(C(=O)NCC(C)(C)O)ccn2c1Cl [Compound 448] |
| 4.27 nM | Cc1nn(C)cc1-c1cccc(F)c1-c1nc2cc(C(=O)N3C[C@@H]4C[C@H]3C(=O)N4)ccn2c1C#N [Compound 468] |
| 4.03 nM | Cc1nn(C)cc1-c1ccccc1-c1nc2cc(C(=O)N[C@@H]3CO[C@H]4[C@@H]3OC[C@H]4O)ccn2c1C#N [Compound 431] |
| 3.41 nM | Cc1nn(C)cc1-c1ccccc1-c1nc2cc(C(=O)NC[C@H]3CNCCO3)ccn2c1Cl [Compound 461] |
| 3.19 nM | Cc1nn(C)cc1-c1ccccc1-c1nc2cc(C(=O)N[C@H]3C[C@](C)(O)C3)ccn2c1Cl [Compound 447] |
| 3.16 nM | Cc1nn(C)cc1-c1ccccc1-c1nc2cc(C(=O)N[C@@H]3CO[C@H]4[C@@H]3OC[C@H]4O)ccn2c1C [Compound 425] |
| 2.9 nM | Cc1nn(C)cc1-c1cccc(F)c1-c1nc2cc(C(=O)N[C@@H]3CO[C@H]4[C@@H]3OC[C@H]4O)ccn2c1C#N [Compound 464] |
| 2.79 nM | Cc1nn(C)cc1-c1ccccc1-c1nc2cc(C(=O)N3CCc4c[nH]nc4C3)ccn2c1Cl [Compound 452] |
| 2.55 nM | Cc1nn(C)cc1-c1ccccc1-c1nc2cc(C(=O)N[C@H]3C[C@@](C)(O)C3)ccn2c1Cl [Compound 460] |
| 2.3 nM | Cc1nn(C)cc1-c1ccccc1-c1nc2cc(C(=O)NC34CC(O)(C3)C4)ccn2c1Cl [Compound 430] |
| 2.26 nM | Cc1nn(C)cc1-c1ccccc1-c1nc2cc(C(=O)N[C@@H]3CO[C@H]4[C@@H]3OC[C@@H]4O)ccn2c1Cl [Compound 473] |
| 1.86 nM | Cc1nn(C)cc1-c1ccccc1-c1nc2cc(C(=O)NCCC(C)(C)O)ccn2c1Cl [Compound 459] |
| 1.74 nM | Cc1nn(C)cc1-c1ccccc1-c1nc2cc(C(=O)NC[C@@H]3CNCCO3)ccn2c1Cl [Compound 455] |
| 1.47 nM | Cc1nn(C)cc1-c1ccccc1-c1nc2cc(C(=O)N3C[C@@H]4C[C@H]3C(=O)N4)ccn2c1Cl [Compound 434] |
| 1.41 nM | Cc1nn(C)cc1-c1cccc(F)c1-c1nc2cc(C(=O)N[C@@H]3CO[C@H]4[C@@H]3OC[C@H]4O)ccn2c1Cl [Compound 470] |
